Results taken from ChEMBL document CHEMBL1909046, “DrugMatrix in vitro pharmacology data”.

Tests used:
[1] = biological target: T1, Cholecystokinin receptor type A (Homo sapiens, UniProt P32238); assay type: cell membranes, Membrane; details: 1321-n1; further: in other assays of this panel Not Active means under 50% inhibition at 10 µM
T1 sequence (P32238 whole entry): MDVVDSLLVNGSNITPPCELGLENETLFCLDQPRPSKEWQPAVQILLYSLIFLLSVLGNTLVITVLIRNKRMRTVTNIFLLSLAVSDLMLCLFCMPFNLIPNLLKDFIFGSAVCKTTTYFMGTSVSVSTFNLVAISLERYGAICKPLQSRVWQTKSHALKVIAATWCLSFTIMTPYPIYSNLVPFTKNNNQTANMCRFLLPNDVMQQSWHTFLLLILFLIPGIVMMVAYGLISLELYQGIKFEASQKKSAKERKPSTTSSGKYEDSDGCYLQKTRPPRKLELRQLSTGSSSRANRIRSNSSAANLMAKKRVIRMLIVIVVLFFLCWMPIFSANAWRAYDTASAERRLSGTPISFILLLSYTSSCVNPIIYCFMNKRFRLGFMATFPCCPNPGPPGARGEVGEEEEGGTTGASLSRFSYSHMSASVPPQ

[2] = biological target: C-C chemokine receptor type 5 (Homo sapiens, UniProt P51681); assay type: cell membranes, HEK293, Membrane; details: hek293; further: in other assays of this panel Not Active means under 50% inhibition at 10 µM
[3] = biological target: Beta-1 adrenergic receptor (Homo sapiens, UniProt P08588); assay: DRUGMATRIX: Adrenergic beta1 radioligand binding (ligand: [125I] Cyanopindolol); assay type: cell membranes, CHO-K1, Membrane; details: cho-k1; Not Active = under 50% inhibition at 10 µM
[4] = biological target: T2, 5-hydroxytryptamine receptor 2C (Homo sapiens, UniProt P28335); assay: DRUGMATRIX: Serotonin (5-Hydroxytryptamine) 5-HT2C radioligand binding (ligand: [3H] Mesulergine); assay type: cell membranes, CHO-K1, Membrane; details: cho-k1; Not Active = under 50% inhibition at 10 µM
T2 sequence (P28335 whole entry): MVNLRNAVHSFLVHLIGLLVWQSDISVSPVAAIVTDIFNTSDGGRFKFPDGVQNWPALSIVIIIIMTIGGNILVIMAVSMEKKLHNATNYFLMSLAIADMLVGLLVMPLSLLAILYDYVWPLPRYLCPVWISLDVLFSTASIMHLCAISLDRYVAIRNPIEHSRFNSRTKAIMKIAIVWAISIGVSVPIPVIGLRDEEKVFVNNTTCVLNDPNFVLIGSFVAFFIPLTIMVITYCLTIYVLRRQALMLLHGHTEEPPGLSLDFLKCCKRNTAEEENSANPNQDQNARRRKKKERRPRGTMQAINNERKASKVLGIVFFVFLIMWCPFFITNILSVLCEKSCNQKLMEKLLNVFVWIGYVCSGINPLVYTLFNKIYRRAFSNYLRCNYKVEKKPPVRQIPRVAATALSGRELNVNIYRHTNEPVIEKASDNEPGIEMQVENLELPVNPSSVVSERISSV

[5] = DRUGMATRIX: Serotonin (5-Hydroxytryptamine) 5-HT3 radioligand binding (ligand: [3H] GR-65630); assay type: cell membranes, Membrane; details: hek293, Not Active = under 50% inhibition at 10 µM
Neutrophil elastase = biological target: T3, Neutrophil elastase (Homo sapiens, UniProt P08246); assay type: tissue-based;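 further: inhibition of neutrophil elastase enzyme activity, measured with a p-nitroanilide-linked peptide substrate; in other assays of this panel Not Active means under 50% inhibition at 10 µM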
T3 sequence (P08246 whole entry): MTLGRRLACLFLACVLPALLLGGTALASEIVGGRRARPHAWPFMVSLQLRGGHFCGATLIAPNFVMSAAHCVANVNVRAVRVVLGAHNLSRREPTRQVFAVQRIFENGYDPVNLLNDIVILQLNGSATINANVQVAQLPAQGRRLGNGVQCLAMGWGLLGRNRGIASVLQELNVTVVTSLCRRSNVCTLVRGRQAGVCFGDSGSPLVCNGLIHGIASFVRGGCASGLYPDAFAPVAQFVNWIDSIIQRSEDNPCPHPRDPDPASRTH

Adenosine receptor A3 = biological target: T4, Adenosine receptor A3 (Homo sapiens, UniProt P0DMS8); assay type: cell membranes, CHO-K1, Membrane;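 further: radioligand binding assay with AB-MECA serving as the labeled ligand; in other assays of this panel Not Active means under 50% inhibition at 10 µM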
T4 sequence (P0DMS8 whole entry): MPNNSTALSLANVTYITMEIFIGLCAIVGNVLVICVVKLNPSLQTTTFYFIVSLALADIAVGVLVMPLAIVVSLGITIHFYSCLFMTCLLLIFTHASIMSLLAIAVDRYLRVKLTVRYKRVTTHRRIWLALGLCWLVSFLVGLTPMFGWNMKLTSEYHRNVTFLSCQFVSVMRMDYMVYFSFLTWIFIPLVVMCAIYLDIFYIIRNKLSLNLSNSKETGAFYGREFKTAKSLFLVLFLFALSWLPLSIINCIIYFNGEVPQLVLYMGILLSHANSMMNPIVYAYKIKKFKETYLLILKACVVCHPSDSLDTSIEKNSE

C-C chemokine receptor type 5, sequence (P51681 whole entry): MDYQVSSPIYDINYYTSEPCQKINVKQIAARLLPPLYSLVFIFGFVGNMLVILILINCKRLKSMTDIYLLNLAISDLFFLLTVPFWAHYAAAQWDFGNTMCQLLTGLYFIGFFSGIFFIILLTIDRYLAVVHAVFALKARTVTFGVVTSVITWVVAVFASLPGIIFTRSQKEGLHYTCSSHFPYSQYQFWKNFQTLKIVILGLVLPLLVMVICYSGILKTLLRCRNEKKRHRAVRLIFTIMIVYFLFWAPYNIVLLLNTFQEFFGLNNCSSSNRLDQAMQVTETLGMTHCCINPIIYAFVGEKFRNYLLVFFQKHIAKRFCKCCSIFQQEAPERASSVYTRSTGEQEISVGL
Beta-1 adrenergic receptor, sequence (P08588 whole entry): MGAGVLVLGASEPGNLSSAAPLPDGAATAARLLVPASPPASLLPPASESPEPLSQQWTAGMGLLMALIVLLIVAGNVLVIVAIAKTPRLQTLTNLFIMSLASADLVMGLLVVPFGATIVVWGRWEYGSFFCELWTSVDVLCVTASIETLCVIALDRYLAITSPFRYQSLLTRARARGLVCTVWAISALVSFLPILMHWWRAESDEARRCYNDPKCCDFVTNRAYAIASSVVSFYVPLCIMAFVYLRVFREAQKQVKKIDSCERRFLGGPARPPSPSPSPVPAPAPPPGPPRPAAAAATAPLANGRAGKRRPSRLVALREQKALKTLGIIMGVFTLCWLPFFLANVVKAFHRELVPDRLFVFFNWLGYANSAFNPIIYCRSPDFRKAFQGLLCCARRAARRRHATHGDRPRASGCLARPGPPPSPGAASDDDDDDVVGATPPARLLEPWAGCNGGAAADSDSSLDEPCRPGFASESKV

Row | SMILES | IC50 [1] | IC50 [2] | IC50 [3] | IC50 [4] | IC50 [5] | Ki [5] | IC50 (Neutrophil elastase) | IC50 (Adenosine receptor A3; cho-k1) | IC50 (Adenosine receptor A3; read-out: IC50) [µM] | Ki (Adenosine receptor A3; read-out: Ki) [µM] | IC50 ([5]; read-out: IC50) [nM] | Ki ([5]; read-out: Ki) [nM]
1 | CC1(C)O[C@@H]2C[C@H]3[C@@H]4C[C@H](F)C5=CC(=O)CC[C@]5(C)[C@H]4[C@@H](O)C[C@]3(C)[C@]2(C(=O)CO)O1 [FLURANDRENOLIDE] | Not Active | Not Active | Not Active | Not Active | Not Active | Not Active | Not Active | Not Active |  |  |  | 
2 | Cc1ccc(S(=O)(=O)NC(=O)NN2CC3CCCC3C2)cc1 (stereo unspecified) [GLICLAZIDE] | Not Active | Not Active | Not Active | Not Active | Not Active | Not Active | Not Active | Not Active |  |  |  | 
3 | NC(=O)NO [HYDROXYUREA] | Not Active | Not Active | Not Active | Not Active | Not Active | Not Active | Not Active | Not Active |  |  |  | 
4 | CC(C)Cc1ccc(C(C)C(=O)O)cc1 (stereo unspecified) [IBUPROFEN] | Not Active | Not Active | Not Active | Not Active | Not Active | Not Active | Not Active | Not Active |  |  |  | 
5 | COc1ccc2c(c1)c(CC(=O)O)c(C)n2C(=O)c1ccc(Cl)cc1 [INDOMETHACIN] | Not Active | Not Active | Not Active | Not Active | Not Active | Not Active | Not Active | Not Active |  |  |  | 
6 | CCc1c2c(nc3ccc(OC(=O)N4CCC(N5CCCCC5)CC4)cc13)-c1cc3c(c(=O)n1C2)COC(=O)[C@]3(O)CC [IRINOTECAN] | Not Active | Not Active | Not Active | Not Active | Not Active | Not Active | Not Active | Not Active |  |  |  | 
7 | CC(C(=O)O)c1cccc(C(=O)c2ccccc2)c1 (stereo unspecified) [KETOPROFEN] | Not Active | Not Active | Not Active | Not Active | Not Active | Not Active | Not Active | Not Active |  |  |  | 
8 | Nc1ccn([C@@H]2CS[C@H](CO)O2)c(=O)n1 [LAMIVUDINE] | Not Active | Not Active | Not Active | Not Active | Not Active | Not Active | Not Active | Not Active |  |  |  | 
9 | O=S(=O)([O-])CCS.[Na+] [MESNA] | Not Active | Not Active | Not Active | Not Active | Not Active | Not Active | Not Active | Not Active |  |  |  | 
10 | C#C[C@]1(O)CC[C@H]2[C@@H]3CCc4cc(OC)ccc4[C@H]3CC[C@@]21C [MESTRANOL] | Not Active | Not Active | Not Active | Not Active | Not Active | Not Active | Not Active | Not Active |  |  |  | 
11 | CC(=O)Nc1cccc(O)c1 [METACETAMOL] | Not Active | Not Active | Not Active | Not Active | Not Active | Not Active | Not Active | Not Active |  |  |  | 
12 | Cc1ncc([N+](=O)[O-])n1CCO [METRONIDAZOLE] | Not Active | Not Active | Not Active | Not Active | Not Active | Not Active | Not Active | Not Active |  |  |  | 
13 | CC(C)(C(=O)c1cccnc1)c1cccnc1 [METYRAPONE] | Not Active | Not Active | Not Active | Not Active | Not Active | Not Active | Not Active | Not Active |  |  |  | 
14 | Oc1ccc(OCc2ccccc2)cc1 [MONOBENZONE] | Not Active | Not Active | Not Active | Not Active | Not Active | Not Active | Not Active | Not Active |  |  |  | 
15 | CC(C)(Oc1ccc(C2CCCc3ccccc32)cc1)C(=O)O (stereo unspecified) [NAFENOPIN] | Not Active | Not Active | Not Active | Not Active | Not Active | Not Active | Not Active | Not Active |  |  |  | 
16 | COc1ccc2cc([C@H](C)C(=O)O)ccc2c1 [NAPROXEN] | Not Active | Not Active | Not Active | Not Active | Not Active | Not Active | Not Active | Not Active |  |  |  | 
17 | CC(C)[C@H]1CC[C@H](C(=O)N[C@H](Cc2ccccc2)C(=O)O)CC1 [NATEGLINIDE] | Not Active | Not Active | Not Active | Not Active | Not Active | Not Active | Not Active | Not Active |  |  |  | 
18 | CCN[C@@H]1C[C@H](N)[C@@H](O[C@H]2OC(CN)=CC[C@H]2N)[C@H](O)[C@H]1O[C@H]1OC[C@](C)(O)[C@H](NC)[C@H]1O [NETILMICIN] | Not Active | Not Active | Not Active | Not Active | Not Active | Not Active | Not Active | Not Active |  |  |  | 
19 | COC(=O)C1=C(C)NC(C)=C(C(=O)OCC(C)C)C1c1ccccc1[N+](=O)[O-] (stereo unspecified) [NISOLDIPINE] | Not Active | Not Active | Not Active | Not Active | Not Active | Not Active | Not Active |  | 7.12 | 4.02 |  | 
20 | CCOC(=O)C1=C(C)NC(C)=C(C(=O)OC)C1c1cccc([N+](=O)[O-])c1 (stereo unspecified) [NITRENDIPINE] | Not Active | Not Active | Not Active | Not Active | Not Active | Not Active | Not Active | Not Active |  |  |  | 
21 | C#C[C@]1(OC(C)=O)CC[C@H]2[C@@H]3CCC4=CC(=O)CC[C@@H]4[C@H]3CC[C@@]21C [NORETHINDRONE ACETATE] | Not Active | Not Active | Not Active | Not Active | Not Active | Not Active | Not Active | Not Active |  |  |  | 
22 | COc1ccc2[nH]c([S+]([O-])Cc3ncc(C)c(OC)c3C)nc2c1 (stereo unspecified) [OMEPRAZOLE] | Not Active | Not Active | Not Active | Not Active | Not Active | Not Active | Not Active | Not Active |  |  |  | 
23 | Cc1nccn1CC1CCc2c(c3ccccc3n2C)C1=O (stereo unspecified) [ONDANSETRON] | Not Active | Not Active | Not Active | Not Active |  |  | Not Active | Not Active |  |  | 9.29 | 2.09
24 | CCn1cc(C(=O)O)c(=O)c2cc(F)c(N3CCN(C)CC3)cc21 [PEFLOXACIN] | Not Active | Not Active | Not Active | Not Active | Not Active | Not Active | Not Active | Not Active |  |  |  | 
25 | CCCCOc1ccc(OCCCN2CCOCC2)cc1 [PRAMOXINE] | Not Active | Not Active | Not Active | Not Active | Not Active | Not Active | Not Active | Not Active |  |  |  | 
